Test results as given in patent US8901118B2, “Compounds and methods for kinase modulation, and indications therefor” (Plexxikon Inc., priority 2010, dated 2014).

Columns and labels:
[1] = molecular target: c-Kit kinase (Homo sapiens, UniProt P10721); assay: c-Kit kinase biochemical activity assay (AlphaScreen, biotin-(E4Y)10 phosphorylation); conditions: 100 μM ATP; read-out: Biochemical Inhibition IC50 Kit
How it was run: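 Phosphorylation of 30 nM biotin-(E4Y)10 by c-Kit (0.75 ng per reaction) with 100 µM ATP in HEPES pH 7.5 buffer with Mg2+/Mn2+, 5% DMSO, 1 h at room temperature; 8-point 1:2 compound dilutions. AlphaScreen detection with streptavidin donor and PY20 acceptor beads after EDTA stop. IC50 from signal versus concentration.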

[2] = molecular target: T1, BCR-FMS BaF3 cells (Homo sapiens, UniProt P07333); assay: BaF3 BCR-FMS cell proliferation assay (ATPlite); format: cell-based; conditions: read-out: Inhibition of Cell Proliferation IC50, BCR/BaF3 Fms
T1 construct: fused on or other part: P11274 (Breakpoint cluster region protein)
T1 sequence (P07333 582-910): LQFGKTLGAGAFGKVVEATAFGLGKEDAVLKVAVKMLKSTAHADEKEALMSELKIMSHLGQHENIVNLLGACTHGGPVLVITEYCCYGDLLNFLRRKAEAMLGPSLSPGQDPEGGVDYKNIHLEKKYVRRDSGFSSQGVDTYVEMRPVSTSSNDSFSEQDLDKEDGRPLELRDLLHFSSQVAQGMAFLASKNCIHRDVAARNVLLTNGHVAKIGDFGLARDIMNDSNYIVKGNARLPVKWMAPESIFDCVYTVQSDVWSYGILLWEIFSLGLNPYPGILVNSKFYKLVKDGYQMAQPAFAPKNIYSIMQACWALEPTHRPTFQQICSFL
How it was run: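 BaF3 lines were seeded at 10,000 cells/well in growth medium with 1 mg/mL G418 but no IL-3, and MV-4-11 cells at 25,000 cells/well; plates were left overnight at 37 °C. Compounds were added as an 8-point 1:3 series with a top concentration of 10 μM and incubated 3 days. IC50 was taken from ATPlite luminescence.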

c-Kit kinase, sequence (P10721 26-976): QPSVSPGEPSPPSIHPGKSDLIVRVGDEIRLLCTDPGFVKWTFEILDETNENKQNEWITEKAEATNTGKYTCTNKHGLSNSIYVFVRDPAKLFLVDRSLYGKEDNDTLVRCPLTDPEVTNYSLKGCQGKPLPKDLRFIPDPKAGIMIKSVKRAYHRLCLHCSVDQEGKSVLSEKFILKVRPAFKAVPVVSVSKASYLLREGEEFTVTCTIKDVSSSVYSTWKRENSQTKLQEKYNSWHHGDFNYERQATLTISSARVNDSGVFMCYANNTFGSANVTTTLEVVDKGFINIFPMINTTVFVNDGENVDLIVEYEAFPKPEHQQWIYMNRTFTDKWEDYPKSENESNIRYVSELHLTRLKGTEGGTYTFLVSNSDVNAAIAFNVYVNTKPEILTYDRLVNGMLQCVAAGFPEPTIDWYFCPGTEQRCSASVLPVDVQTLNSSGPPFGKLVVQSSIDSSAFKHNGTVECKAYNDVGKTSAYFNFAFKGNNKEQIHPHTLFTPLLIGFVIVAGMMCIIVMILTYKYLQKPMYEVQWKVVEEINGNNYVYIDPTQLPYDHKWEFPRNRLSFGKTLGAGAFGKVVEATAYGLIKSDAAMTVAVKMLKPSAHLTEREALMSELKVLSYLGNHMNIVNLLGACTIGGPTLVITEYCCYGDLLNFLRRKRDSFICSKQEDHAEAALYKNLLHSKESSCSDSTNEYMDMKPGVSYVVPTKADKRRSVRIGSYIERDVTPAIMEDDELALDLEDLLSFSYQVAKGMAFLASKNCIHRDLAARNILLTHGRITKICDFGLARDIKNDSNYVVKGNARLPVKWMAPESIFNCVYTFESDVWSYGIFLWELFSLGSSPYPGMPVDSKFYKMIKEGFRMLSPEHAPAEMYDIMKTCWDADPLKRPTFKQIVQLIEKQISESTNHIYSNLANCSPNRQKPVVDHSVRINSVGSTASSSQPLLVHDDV

| Structure (SMILES) | IC50 [1] [nM] | IC50 [2] [nM] |
| --- | --- | --- |
| CCc1ccc(Nc2ccc(C(=O)c3c[nH]c4ncnc(NCC(F)(F)F)c34)c(F)n2)cn1 [Compound P-4120, [6-[(6-ethyl-3-pyridyl)amino]-2-fluoro-3-pyridyl]-[4-(2,2,2-trifluoroethylamino)-7H-pyrrolo[2,3-d]pyrimidin-5-yl]methanone] | < 100 | < 100 |
| CCc1ccc(Nc2ccc(C(=O)c3c[nH]c4ncnc(NCC(C)C)c34)c(F)n2)cn1 [Compound P-4121, [6-[(6-ethyl-3-pyridyl)amino]-2-fluoro-3-pyridyl]-[4-(isobutylamino)-7H-pyrrolo[2,3-d]pyrimidin-5-yl]methanone] | < 10 | < 10 |
| CCCNc1ncnc2[nH]cc(C(=O)c3ccc(Nc4ccc(CC)nc4)nc3F)c12 [Compound P-4122, [6-[(6-ethyl-3-pyridyl)amino]-2-fluoro-3-pyridyl]-[4-(propylamino)-7H-pyrrolo[2,3-d]pyrimidin-5-yl]methanone] | < 10 | < 10 |
| Fc1cc(Cc2c[nH]c3ncnc(NC4CC4)c23)cnc1NC1CCC(F)(F)CC1 [Compound P-4127, N-cyclopropyl-5-[[6-[(4,4-difluorocyclohexyl)amino]-5-fluoro-3-pyridyl]methyl]-7H-pyrrolo[2,3-d]pyrimidin-4-amine] | < 1000 | < 10 |

Further lines, results first:

| IC50 [1] [nM] | IC50 [2] [nM] | Structure (SMILES) |
| --- | --- | --- |
| < 10 | < 10 | CCNc1ncnc2[nH]cc(C(=O)c3ccc(Nc4ccc(CC)nc4)nc3F)c12 [Compound P-4123, [4-(ethylamino)-7H-pyrrolo[2,3-d]pyrimidin-5-yl]-[6-[(6-ethyl-3-pyridyl)amino]-2-fluoro-3-pyridyl]methanone] |
| < 10 | < 10 | CCc1ccc(Nc2ccc(C(=O)c3c[nH]c4ncnc(NC)c34)c(F)n2)cn1 [Compound P-4124, [6-[(6-ethyl-3-pyridyl)amino]-2-fluoro-3-pyridyl]-[4-(methylamino)-7H-pyrrolo[2,3-d]pyrimidin-5-yl]methanone] |
| < 100 | < 10 | CCc1ccc(Nc2ccc(C(=O)c3c[nH]c4ncnc(NC5CC5)c34)c(F)n2)cn1 [Compound P-4125, [4-(cyclopropylamino)-7H-pyrrolo[2,3-d]pyrimidin-5-yl]-[6-[(6-ethyl-3-pyridyl)amino]-2-fluoro-3-pyridyl]methanone] |
| < 100 | < 10 | COc1ccc(Nc2ccc(C(=O)c3c[nH]c4ncnc(NC5CC5)c34)c(F)n2)cn1 [Compound P-4126, [4-(cyclopropylamino)-7H-pyrrolo[2,3-d]pyrimidin-5-yl]-[2-fluoro-6-[(6-methoxy-3-pyridyl)amino]-3-pyridyl]methanone] |
